Results published in PubChem BioAssay (NCI).
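Here, GI50 denotes the concentration required for 50% inhibition of growth. TGI: concentration producing complete growth inhibition.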

Experiments:
Assay in all cases: NCI tumour cell line growth inhibition, 384-well format
SF-295 CNS = system: SF-295 CNS
SK-MEL-5 melanoma = system: SK-MEL-5 melanoma
NCI-H460 NSCLC = system: NCI-H460 NSCLC
SF-539 CNS = system: SF-539 CNS
SK-OV-3 ovarian = system: SK-OV-3 ovarian
SF-268 CNS = system: SF-268 CNS
EKVX NSCLC = system: EKVX NSCLC
DU-145 prostate = system: DU-145 prostate
PC-3 prostate = system: PC-3 prostate
MDA-MB-435 melanoma = system: MDA-MB-435 melanoma
UACC-257 melanoma = system: UACC-257 melanoma
NCI-H522 lung = system: NCI-H522 lung
SW-620 colon = system: SW-620 colon
HCT-116 colon = system: HCT-116 colon
TK-10 renal = system: TK-10 renal
OVCAR-8 ovarian = system: OVCAR-8 ovarian
NCI-H23 lung = system: NCI-H23 lung
UO-31 renal = system: UO-31 renal
MDA-MB-231 breast = system: MDA-MB-231 breast
UACC-62 melanoma = system: UACC-62 melanoma
COLO 205 colon = system: COLO 205 colon
MCF7 breast = system: MCF7 breast
T-47D breast = system: T-47D breast
SNB-19 CNS = system: SNB-19 CNS
IGROV1 ovarian = system: IGROV1 ovarian
MALME-3M melanoma = system: MALME-3M melanoma
KM12 colon = system: KM12 colon
SK-MEL-28 melanoma = system: SK-MEL-28 melanoma
M14 melanoma = system: M14 melanoma
786-0 renal = system: 786-0 renal
OVCAR-3 ovarian = system: OVCAR-3 ovarian
HS 578T breast = system: HS 578T breast
HT29 colon = system: HT29 colon
NCI-H322M lung = system: NCI-H322M lung
MDA-MB-468 breast = system: MDA-MB-468 breast
ACHN renal = system: ACHN renal
MOLT-4 leukemia = system: MOLT-4 leukemia
OVCAR-5 ovarian = system: OVCAR-5 ovarian
BT-549 breast = system: BT-549 breast
SK-MEL-2 melanoma = system: SK-MEL-2 melanoma
U251 glioblastoma = system: U251 glioblastoma
HL-60(TB) leukemia = system: HL-60(TB) leukemia
CAKI-1 renal = system: CAKI-1 renal
SNB-75 CNS = system: SNB-75 CNS
SR leukemia = system: SR leukemia
A498 renal = system: A498 renal
HCT-15 colon = system: HCT-15 colon
OVCAR-4 ovarian = system: OVCAR-4 ovarian
SN12C renal = system: SN12C renal
K-562 leukemia = system: K-562 leukemia
HOP-62 NSCLC = system: HOP-62 NSCLC
A549 NSCLC = system: A549 NSCLC
NCI-H226 lung = system: NCI-H226 lung
HOP-92 NSCLC = system: HOP-92 NSCLC

C[C@]12CC[C@@H]3c4ccc(O)cc4C[C@@H](CCCCCCCCCS(=O)CCCC(F)(F)C(F)(F)F)[C@H]3[C@@H]1CC[C@@H]2O (some centres not stated)
GI50 (SF-295 CNS): 9.39 µM
TGI (SF-295 CNS): > 100 µM
GI50 (SK-MEL-5 melanoma): 27.4 µM
TGI (SK-MEL-5 melanoma): > 100 µM
GI50 (NCI-H460 NSCLC): > 100 µM
TGI (NCI-H460 NSCLC): > 100 µM
GI50 (SF-539 CNS): > 100 µM
TGI (SF-539 CNS): > 100 µM
GI50 (SK-OV-3 ovarian): > 100 µM
TGI (SK-OV-3 ovarian): > 100 µM
GI50 (SF-268 CNS): > 100 µM
TGI (SF-268 CNS): > 100 µM
GI50 (EKVX NSCLC): > 100 µM
TGI (EKVX NSCLC): > 100 µM
GI50 (DU-145 prostate): > 100 µM
TGI (DU-145 prostate): > 100 µM
GI50 (PC-3 prostate): > 100 µM
TGI (PC-3 prostate): > 100 µM
GI50 (MDA-MB-435 melanoma): > 100 µM
TGI (MDA-MB-435 melanoma): > 100 µM
GI50 (UACC-257 melanoma): > 100 µM
TGI (UACC-257 melanoma): > 100 µM
GI50 (NCI-H522 lung): > 100 µM
TGI (NCI-H522 lung): > 100 µM
GI50 (SW-620 colon): > 100 µM
TGI (SW-620 colon): > 100 µM
GI50 (HCT-116 colon): > 100 µM
TGI (HCT-116 colon): > 100 µM
GI50 (TK-10 renal): > 100 µM
TGI (TK-10 renal): > 100 µM
GI50 (OVCAR-8 ovarian): > 100 µM
TGI (OVCAR-8 ovarian): > 100 µM
GI50 (NCI-H23 lung): > 100 µM
TGI (NCI-H23 lung): > 100 µM
GI50 (UO-31 renal): > 100 µM
TGI (UO-31 renal): > 100 µM
GI50 (MDA-MB-231 breast): > 100 µM
TGI (MDA-MB-231 breast): > 100 µM
GI50 (UACC-62 melanoma): > 100 µM
TGI (UACC-62 melanoma): > 100 µM
GI50 (COLO 205 colon): 77.1 µM
TGI (COLO 205 colon): > 100 µM
TGI (MCF7 breast): > 100 µM
GI50 (T-47D breast): 1.93 µM
TGI (T-47D breast): > 100 µM
GI50 (SNB-19 CNS): > 100 µM
TGI (SNB-19 CNS): > 100 µM
GI50 (IGROV1 ovarian): > 100 µM
TGI (IGROV1 ovarian): > 100 µM
GI50 (MALME-3M melanoma): > 100 µM
TGI (MALME-3M melanoma): > 100 µM
GI50 (KM12 colon): 75.8 µM
TGI (KM12 colon): > 100 µM
GI50 (SK-MEL-28 melanoma): > 100 µM
TGI (SK-MEL-28 melanoma): > 100 µM
GI50 (M14 melanoma): > 100 µM
TGI (M14 melanoma): > 100 µM
GI50 ([…]-0 renal): > 100 µM
TGI (786-0 renal): > 100 µM
GI50 (OVCAR-3 ovarian): > 100 µM
TGI (OVCAR-3 ovarian): > 100 µM
GI50 (HS 578T breast): > 100 µM
TGI (HS 578T breast): > 100 µM
GI50 (HT29 colon): 49.9 µM
TGI (HT29 colon): > 100 µM
GI50 (NCI-H322M lung): 76.8 µM
TGI (NCI-H322M lung): > 100 µM
GI50 (MDA-MB-468 breast): 2.37 µM
TGI (MDA-MB-468 breast): > 100 µM
GI50 (ACHN renal): > 100 µM
TGI (ACHN renal): > 100 µM
GI50 (MOLT-4 leukemia): 8.42 µM
TGI (MOLT-4 leukemia): > 100 µM
GI50 (OVCAR-5 ovarian): > 100 µM
TGI (OVCAR-5 ovarian): > 100 µM
GI50 (BT-549 breast): > 100 µM
TGI (BT-549 breast): > 100 µM
GI50 (SK-MEL-2 melanoma): > 100 µM
TGI (SK-MEL-2 melanoma): > 100 µM
GI50 (U251 glioblastoma): > 100 µM
TGI (U251 glioblastoma): > 100 µM
GI50 (HL-60(TB) leukemia): > 100 µM
TGI (HL-60(TB) leukemia): > 100 µM
GI50 (CAKI-1 renal): > 100 µM
TGI (CAKI-1 renal): > 100 µM
GI50 (SNB-75 CNS): > 100 µM
TGI (SNB-75 CNS): > 100 µM
GI50 (SR leukemia): > 100 µM
TGI (SR leukemia): > 100 µM
GI50 (A498 renal): > 100 µM
TGI (A498 renal): > 100 µM
GI50 (HCT-15 colon): 67.4 µM
TGI (HCT-15 colon): > 100 µM
GI50 (OVCAR-4 ovarian): > 100 µM
TGI (OVCAR-4 ovarian): > 100 µM
GI50 (SN12C renal): > 100 µM
TGI (SN12C renal): > 100 µM
GI50 (K-562 leukemia): 7.51 µM
TGI (K-562 leukemia): > 100 µM
GI50 (HOP-62 NSCLC): > 100 µM
TGI (HOP-62 NSCLC): > 100 µM
GI50 (A549 NSCLC): > 100 µM
TGI (A549 NSCLC): > 100 µM
GI50 (NCI-H226 lung): > 100 µM
TGI (NCI-H226 lung): > 100 µM
GI50 (HOP-92 NSCLC): > 100 µM
TGI (HOP-92 NSCLC): > 100 µM
